ChEMBL document CHEMBL1151042, “5-HT4receptor antagonists : oxazolo, oxazino and oxazepino[3,2-a]indole derivatives” (Bioorg Med Chem Lett, 1994)

How the values were obtained:
[1] = target: 5-hydroxytryptamine receptor 4 (Cavia porcellus, UniProt O70528); experiment: Ability to block 5-HT4 receptor mediated effect of 5-HT was assessed in the guinea-pig distal colon longitudinal muscle myenteric plexus preparation (LMMP)
[2] = target: Serotonin 4 (5-HT4) receptor (Sus scrofa, UniProt Q6Q253); experiment: Compound was evaluated for its ability to inhibit the binding of 5-HT4 receptor radioligand [125I]SB 207710 to piglet hippocampal membrane; type: tissue-based, Hippocampus
Sequence of Serotonin 4 (5-HT4) receptor (Q6Q253 whole entry): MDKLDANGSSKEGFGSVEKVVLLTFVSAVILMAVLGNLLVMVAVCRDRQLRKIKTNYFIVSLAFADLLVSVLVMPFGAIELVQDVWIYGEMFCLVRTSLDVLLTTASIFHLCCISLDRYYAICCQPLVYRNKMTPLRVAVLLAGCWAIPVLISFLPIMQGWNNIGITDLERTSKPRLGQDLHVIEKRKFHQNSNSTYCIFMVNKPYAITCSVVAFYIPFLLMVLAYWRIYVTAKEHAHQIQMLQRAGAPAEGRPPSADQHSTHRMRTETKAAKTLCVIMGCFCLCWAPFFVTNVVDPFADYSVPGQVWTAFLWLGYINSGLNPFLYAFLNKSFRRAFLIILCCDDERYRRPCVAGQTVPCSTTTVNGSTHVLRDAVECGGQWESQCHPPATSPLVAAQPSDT

Sequence of 5-hydroxytryptamine receptor 4 (O70528 whole entry): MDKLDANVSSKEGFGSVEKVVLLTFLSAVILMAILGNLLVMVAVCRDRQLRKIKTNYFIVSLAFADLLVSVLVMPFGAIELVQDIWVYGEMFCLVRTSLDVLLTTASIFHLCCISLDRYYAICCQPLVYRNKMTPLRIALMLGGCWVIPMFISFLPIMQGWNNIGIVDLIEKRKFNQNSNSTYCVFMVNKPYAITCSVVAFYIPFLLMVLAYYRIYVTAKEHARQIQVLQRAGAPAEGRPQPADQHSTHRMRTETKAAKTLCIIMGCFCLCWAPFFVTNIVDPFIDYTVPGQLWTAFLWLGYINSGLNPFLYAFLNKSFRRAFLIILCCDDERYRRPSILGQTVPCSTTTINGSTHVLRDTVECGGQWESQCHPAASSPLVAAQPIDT

Compound | IC50 [1] [pM] | Ki [2] [pM]
CCCCN1CCC(COC(=O)c2c3n(c4ccccc24)CCCO3)CC1 | 25.1 | 63.1
CCCCN1CCC(COC(=O)c2c3n(c4ccccc24)CCO3)CC1 | 100 | 79.4
CCCCN1CCC(COC(=O)c2c3n(c4ccccc24)CCCCO3)CC1 | 158 | 200

Next, values leading:

IC50 [1] [pM] | Ki [2] [pM] | Compound
79.4 | 126 | CCCCN1CCC(COC(=O)c2cc(Cl)c(N)c3c2OCCO3)CC1
501 | 2510 | CCCCN1CCC(COC(=O)c2c[nH]c3ccccc23)CC1
